In patent US12502379B2, “Ponesimod for avoiding worsening of fatigue-related symptoms in multiple sclerosis patients” (Vanda Pharmaceuticals Inc., priority 2019, dated 2025):

Key:
[1] = test system: adult subjects with relapsing MS; assay: Time to first 24-week confirmed disability accumulation (CDA) on EDSS; format: in vivo, human
Procedure: (§1) Secondary efficacy variables and testing strategy: Four secondary efficacy endpoints were analyzed as per the statistical testing strategy outlined in FIG. 1. • Change from baseline to Week 108 in fatigue-related symptoms as measured by the symptoms domain of the FSIQ-RMS patient-reported outcome [Fatigue] • Cumulative number of combined unique active lesions from baseline to Week 108 on brain MRI [CUALs] • Time to first 12-week confirmed disability accumulation (CDA) from baseline to EOS on Expanded Disability Status Scale (EDSS) [12-week CDA] • Time to first 24-week CDA from baseline to EOS on EDSS [24-week CDA]
(§2) A 24-week CDA is an increase of at least 1.5 in EDSS for subjects with a baseline EDSS score of 0.0 or an increase of at least 1.0 in EDSS for subjects with a baseline EDSS score of 1.0 to 5.0, or an increase of at least 0.5 in EDSS for subjects with a baseline EDSS score ≥5.5 which is to be confirmed after 24 weeks.
(§3) Baseline EDSS is defined as the last EDSS score recorded prior to randomization. The initial EDSS increase, meeting the above criteria, is defined as the onset of disability accumulation.
(§4) All EDSS measurements (with or without relapse, at a scheduled or unscheduled visit) were used to determine the onset of disability accumulation. […]

[2] = test system: Patients (18-55 years) with RMS; assay: No evidence of disease activity (NEDA-3) status; format: in vivo, human; conditions: PON 20 mg vs TER 14 mg; week 108
Procedure: (§5) In this study, prespecified MRI-based endpoints and no evidence of disease activity (NEDA) status is evaluated.
(§6) Patients (18-55 years) with RMS (expanded disability status scale scores: 0-5.5) were randomized (1:1) to receive ponesimod (PON) 20 mg or teriflunomide (TER) 14 mg for 108 weeks. MRI assessments were: volume of T2 lesions; mean number of new gadolinium-enhancing (Gd+) T1 lesions and new/enlarging T2 lesions; and absence of active MRI lesions at week 108. NEDA-3 status (absence of confirmed relapse, Gd+T1 lesions and new/enlarging T2 lesions on annual MRIs, and 12-week confirmed disability accumulation) was evaluated from baseline to week 108.

[3] = test system: adult subjects with relapsing MS; assay: Time to first 12-week confirmed disability accumulation (CDA) on EDSS; format: in vivo, human
Procedure: as §1
as §2, with “12-week” for “24-week”, “12” for “24”
as §3, §4

[4] = 12-lead ECG heart rate on Day 1, change from pre-dose; format: in vivo, human
Procedure: As per up-titration regimen, the dose of ponesimod on Day 1 is 2 mg.

[5] = test system: Patients (18-55 years) with RMS; assay: Pre-specified MRI endpoints (Example 2); format: in vivo, human; conditions: PON 20 mg vs TER 14 mg; baseline to week 108
Procedure: as §5, §6

[6] = ALT increase relative to ULN; format: in vivo, human; conditions: ponesimod 20 mg arm, teriflunomide 14 mg arm
[7] = test system: adult subjects with relapsing MS; assay: Combined unique active lesions (CUAL) on brain MRI from baseline to Week 108; format: in vivo, human
Procedure: as §1
CUAL are new Gd+T1 lesions plus new or enlarging T2 lesions (without double-counting of lesions).
MRI scans were performed at Visits 2 (Baseline), 10 (Week 60), and 14 (EOT) and at any unscheduled visit (U1, U2, etc.). If applicable, MRI scans also were performed at the corresponding visits in the PTOP (Visits 10A and 14A). Testing at all visits were performed up to 7 days prior to or after the visit date.
MRI variables included the number and volume of new and total Gd+ lesions on T1-weighted MRI scans, number of new and enlarging lesions and lesion volume on T2-weighted MRI, and global measures of loss of brain tissue.
T1-weighted imaging before and after i.v. administration of 0.1 mmol/kg body weight (=0.2 mL/kg) of Gd as well as PD-T2-weighted imaging was performed. […]

[8] = Treatment-emergent adverse events, Safety Set
Procedure: A prospective, multicenter, randomized, double-blind, active controlled, parallel-group, phase III, superiority study was conducted.
The Safety Set (SAF) included all randomized subjects who received at least one dose of study treatment. Subjects were analyzed based on actual treatment taken, not randomized treatment.

[9] = ponesimod 20 mg vs teriflunomide 14 mg, stratified Cox regression
[10] = ponesimod 20 mg, not statistically significant
[11] = Day 1 (ponesimod dose 2 mg per up-titration), Safety Set, N = 565 / 566
[12] = Safety Set, ponesimod 20 mg N = 565, teriflunomide 14 mg N = 566
[13] = ponesimod 20 mg, teriflunomide 14 mg

Compound: CCC/N=C1\S/C(=C\c2ccc(OC[C@H](O)CO)c(Cl)c2)C(=O)N1c1ccccc1C [Ponesimod, (R)-5-[3-chloro-4-(2,3-dihydroxy-propoxy)-benz[Z]ylidene]-2-([Z]-propylimino)-3-o-tolyl-thiazolidin-4-one]
- Time to first 24-week CDA, hazard ratio [1, 9]: 0.84
- Reduction of the risk of 24-week CDA compared to teriflunomide 14 mg [1, 10]: 16%
- NEDA-3, odds ratio (OR) [2]: 1.70
- Time to first 12-week CDA, hazard ratio [3, 9]: 0.83
- Reduction of the risk of 12-week CDA compared to teriflunomide 14 mg [3, 10]: 17%
- Mean heart rate reduction compared to pre-dose (maximum) ([4]; Day 1, 2-hours post dose, ponesimod arm dose on Day 1 is 2 mg): −8.7 bpm
- ECG HR effect: time of nadir / maximum mean heart rate reduction post-dose ([4]; Day 1, first dose (ponesimod 2 mg per up-titration)): 2 h
- Subjects with asymptomatic post-dose HR≤40 bpm ([4]; Day 1, all had pre-treatment HR<55 bpm): 3
- New Gd+T1 lesions per scan, rate ratio [RR] [5]: 0.42
- New/enlarging T2 lesions per year, RR [5]: 0.44
- Proportion of subjects who experienced ALT increase >3×ULN [6]: 17.3%
- Proportion of subjects who experienced ALT increase >8×ULN [6]: 0.7%
- Reduction of the number of CUALs between baseline and week 108 compared to teriflunomide 14 mg ([7]; ponesimod 20 mg): 56%
- CUAL treatment effect (Rate Ratio) ([7]; ponesimod 20 mg vs teriflunomide 14 mg, baseline to Week 108): 0.44
- AESI effect on heart rate and rhythm (including hypotension) on Day 1: Subjects with at least one AE [8, 11]: 2.1%
- AESI heart rate and rhythm on Day 1, PT: Electrocardiogram QT prolonged [8, 11]: 0 n
- AESI heart rate and rhythm on Day 1, PT: Presyncope [8, 11]: 0 n
- Subject with at least one AE (treatment-emergent) [8, 12]: 88.8%
- Subject with at least one AE leading to study drug discontinuation [8, 12]: 8.7%
- Subject with at least one Fatal AE [8, 12]: 0 n
- Subject with at least one Serious AE [8, 12]: 8.7%
- TEAEs leading to premature discontinuation of study drug, SOC: Reproductive system and breast disorders [8, 12]: 0 n
- TEAEs leading to premature discontinuation of study drug, SOC: Surgical and medical procedures [8, 12]: 0 n
- Treatment-emergent AESI: Hepatobiliary disorders/Liver enzyme abnormality [8, 12]: 25.7%
- Treatment-emergent AESI: Hypertension [8, 12]: 10.1%
- Treatment-emergent AESI: Pulmonary events [8, 12]: 8.0%
- TEAE: ALT increased [8, 13]: 19.5%
- TEAE: headache [8, 13]: 11.5%
- TEAE: nasopharyngitis [8, 13]: 19.3%
- TEAE: upper respiratory tract infection [8, 13]: 10.6%
